Measured values reported in ChEMBL document CHEMBL5126627, “Structure-Kinetic Relationship Studies for the Development of Long Residence Time LpxC Inhibitors” (J Med Chem, 2022).
Converted amounts (≈) assume the structure as drawn. The source made the active and inactive calls. The rule behind the calls is not given here.

Key:
[1] = tested on: Escherichia coli; test: Antibacterial activity against Escherichia coli MB2884; type: functional
[2] = tested on: Pseudomonas aeruginosa; test: Antibacterial activity against Pseudomonas aeruginosa PAO1 assessed as inhibition of bacterial growth incubated for 24 hrs by microdilution method; type: functional
[3] = tested on: Escherichia coli; test: Antibacterial activity against Escherichia coli ATCC 25922; type: functional
[4] = tested on: Pseudomonas aeruginosa; test: Antibacterial activity against Pseudomonas aeruginosa ATCC 27853; type: functional
[5] = Binding affinity to Pseudomonas aeruginosa LpxC assessed as inhibition constant incubated for 18 hrs by fluorescence based assay
[6] = tested on: Pseudomonas aeruginosa; test: Binding affinity to Pseudomonas aeruginosa LpxC assessed as binding constant (Koff) incubated for 18 hrs by fluorescence based assay
[7] = tested on: Pseudomonas aeruginosa; test: Binding affinity to Pseudomonas aeruginosa LpxC assessed as binding constant (kon) incubated for 18 hrs by fluorescence based assay
[8] = tested on: Pseudomonas aeruginosa; test: Antibacterial activity against Pseudomonas aeruginosa paEP assessed as inhibition of bacterial growth incubated for 24 hrs by microdilution method; type: functional
[9] = tested on: Pseudomonas aeruginosa; test: Binding affinity to Pseudomonas aeruginosa LpxC assessed as residence time incubated for 18 hrs by fluorescence based assay
[10] = tested on: Pseudomonas aeruginosa; test: Antibacterial activity against Pseudomonas aeruginosa PAO1 assessed as post antibiotic effect by measuring time required for increase in 1 log10 CFU/ml of bacteria at 4X MIC incubated for 1 hr followed by compound washout; type: functional
[11] = tested on: Pseudomonas aeruginosa; test: Antibacterial activity against Pseudomonas aeruginosa PAO1 assessed as post antibiotic effect by measuring time required for increase in 1 log10 CFU/ml of bacteria at 16X MIC incubated for 1 hr followed by compound washout; type: functional
[12] = tested on: Pseudomonas aeruginosa; test: Antibacterial activity against Pseudomonas aeruginosa PAO1 assessed as post antibiotic effect by measuring time required for increase in 1 log10 CFU/ml of bacteria at 8X MIC incubated for 1 hr followed by compound washout; type: functional
[13] = tested on: Pseudomonas aeruginosa; test: Bactericidal activity against Pseudomonas aeruginosa PAO1 assessed as reduction in 3log 10 CFU/ml at 4 to 16 times MIC incubated for 16 hrs by time-kill assay; type: functional, organism-based
[14] = tested on: Pseudomonas aeruginosa; test: Binding affinity to Pseudomonas aeruginosa LpxC assessed as residence time incubated for 18 hrs by spin column assay

Compound	MIC [1]	MIC [2]	MIC [3]	MIC [4]	Ki [5]	K [6]	K [7]	MIC [8]	TIME [9]	Time [10]	Time [11]	Time [12]	Activity [13]	TIME [14]
CCCc1cc(C2=N[C@@H](C(=O)NO)CO2)cc(OC)c1OC	1 µg/mL (≈ 3.24 µM)													
COc1ccc(-c2ccn(CC[C@](C)(C(=O)NO)S(C)(=O)=O)c(=O)c2)c(F)c1		0.625 µM (≈ 0.258 µg/mL)												
C[C@@H](O)[C@H](NC(=O)c1ccc(C#Cc2ccc(CN3CCOCC3)cc2)cc1)C(=O)NO			0.2 µg/mL (≈ 0.457 µM)											
O=C(NO)[C@H](Cc1ccc2ccccc2c1)NS(=O)(=O)c1ccc2ccccc2c1			1 µg/mL (≈ 2.38 µM)	> 0.25 µg/mL										
COc1ccc(-c2ccc(CNC3(C(=O)NO)CCS(=O)(=O)CC3)cc2F)cc1		0.8 µM (≈ 0.338 µg/mL)			14.4 pM	0.00049 s⁻¹	3.45e+07 M⁻¹ s⁻¹	0.1 µM (≈ 0.0422 µg/mL)	0.572 h					
COc1ccc(-c2ccc(CNC3(C(=O)NO)CCS(=O)(=O)CC3)cc2)c(F)c1		0.4 µM (≈ 0.169 µg/mL)			37.9 pM	0.00053 s⁻¹	1.66e+07 M⁻¹ s⁻¹	0.03 µM (≈ 0.0127 µg/mL)	0.533 h	1 h	1.7 h	1.3 h	Active	79 h
C[C@@H](O)C(NC(=O)c1ccc(-c2cn(Cc3ccccc3)nn2)cc1)C(=O)NO (mixture of isomers)		> 50 µM						> 12.5 µM						
CC(CCn1ccc(-c2ccccc2)cc1=O)(C(=O)NO)S(C)(=O)=O (racemic)		3.12 µM (≈ 1.14 µg/mL)						0.2 µM (≈ 0.0729 µg/mL)		0.7 h	1.3 h	1.1 h	Active	
CC(CCn1ccc(-c2ccc(-c3cnnn3Cc3ccccc3)cc2)cc1=O)(C(=O)NO)S(C)(=O)=O (racemic)		50 µM (≈ 26.1 µg/mL)			67.7 pM	0.00187 s⁻¹	2.78e+07 M⁻¹ s⁻¹	12.5 µM (≈ 6.52 µg/mL)	0.15 h					
CC(CCn1ccc(-c2ccc(-c3cn(CCO)nn3)cc2)cc1=O)(C(=O)NO)S(C)(=O)=O (racemic)		> 50 µM			3.7 pM	0.00018 s⁻¹	5.96e+07 M⁻¹ s⁻¹	> 12.5 µM						
COc1ccc(-c2ccn(CCC(C)(C(=O)NO)S(C)(=O)=O)c(=O)c2)cc1 (racemic)		3.12 µM (≈ 1.23 µg/mL)						0.8 µM (≈ 0.316 µg/mL)						
CC(CCn1ccc(-c2ccc(-c3cn(CC45CC(C4)C5)nn3)cc2)cc1=O)(C(=O)NO)S(C)(=O)=O (racemic)		12.5 µM (≈ 6.4 µg/mL)			2.1 pM	0.00015 s⁻¹	8.52e+07 M⁻¹ s⁻¹	0.78 µM (≈ 0.399 µg/mL)		4 h				
CC(CCn1ccc(-c2ccc(CN3CCOCC3)cc2)cc1=O)(C(=O)NO)S(C)(=O)=O (racemic)		50 µM (≈ 23.2 µg/mL)			96.8 pM	0.0035 s⁻¹	3.64e+07 M⁻¹ s⁻¹		0.0783 h					
CC(CCn1ccc(-c2ccc(-c3cn(Cc4ccc([N+](=O)[O-])cc4)nn3)cc2)cc1=O)(C(=O)NO)S(C)(=O)=O (racemic)		6.25 µM (≈ 3.54 µg/mL)			7 pM	0.00021 s⁻¹	3.07e+07 M⁻¹ s⁻¹	0.1 µM (≈ 0.0567 µg/mL)	1.31 h					
CC1(Cn2cc(-c3ccc(-c4ccn(CCC(C)(C(=O)NO)S(C)(=O)=O)c(=O)c4)cc3)nn2)COC1 (racemic)		25 µM (≈ 12.9 µg/mL)						1.56 µM (≈ 0.804 µg/mL)						
CC(CCn1ccc(-c2ccc(-c3cn(CC4CC4)nn3)cc2)cc1=O)(C(=O)NO)S(C)(=O)=O (racemic)		3.12 µM (≈ 1.52 µg/mL)			10.2 pM	0.00025 s⁻¹	2.64e+07 M⁻¹ s⁻¹	0.4 µM (≈ 0.194 µg/mL)	1.11 h	1.6 h	3.1 h	2.2 h	Active	191 h
CC(CCn1ccc(-c2ccc(-c3cn(Cc4ccc(F)cc4)nn3)cc2)cc1=O)(C(=O)NO)S(C)(=O)=O (racemic)		1.56 µM (≈ 0.842 µg/mL)			8 pM	0.00025 s⁻¹	3.38e+07 M⁻¹ s⁻¹	0.05 µM (≈ 0.027 µg/mL)	1.14 h	1.7 h	3.5 h	2.5 h	Active	106 h
CC(CCn1ccc(-c2ccc(-c3cn(Cc4cccnc4)nn3)cc2)cc1=O)(C(=O)NO)S(C)(=O)=O (racemic)					3.2 pM	0.00014 s⁻¹	4.28e+07 M⁻¹ s⁻¹		2.02 h					
CC(CCn1ccc(-c2ccc(C(=O)NCc3ccccc3)cc2)cc1=O)(C(=O)NO)S(C)(=O)=O (racemic)		25 µM (≈ 12.4 µg/mL)			274 pM	0.0021 s⁻¹	2.38e+07 M⁻¹ s⁻¹	3.12 µM (≈ 1.55 µg/mL)	0.133 h					
CC(CCn1ccc(-c2ccc(-c3cn(Cc4ccccn4)nn3)cc2)cc1=O)(C(=O)NO)S(C)(=O)=O (racemic)		6.25 µM (≈ 3.27 µg/mL)			5.5 pM		3.72e+07 M⁻¹ s⁻¹	0.2 µM (≈ 0.105 µg/mL)						
CC(CCn1ccc(-c2ccc(-n3nccn3)cc2)cc1=O)(C(=O)NO)S(C)(=O)=O (racemic)		1.56 µM (≈ 0.673 µg/mL)						0.4 µM (≈ 0.173 µg/mL)		1.4 h	3.4 h	2.2 h	Active	
CC(CCn1ccc(-c2ccc(-c3cn(Cc4ccccc4)nn3)cc2)cc1=O)(C(=O)NO)S(C)(=O)=O (racemic)		12.5 µM (≈ 6.52 µg/mL)			10.6 pM	0.00032 s⁻¹	4.38e+07 M⁻¹ s⁻¹	0.78 µM (≈ 0.407 µg/mL)	0.955 h					
CC(CCn1ccc(-c2ccc(-c3cn(CC4CCCCC4)nn3)cc2)cc1=O)(C(=O)NO)S(C)(=O)=O (racemic)		50 µM (≈ 26.4 µg/mL)			5.5 pM	0.00017 s⁻¹	3.1e+07 M⁻¹ s⁻¹	3.12 µM (≈ 1.65 µg/mL)	1.67 h					
CC(CCn1ccc(-c2ccc(-c3cn(Cc4ccncc4)nn3)cc2)cc1=O)(C(=O)NO)S(C)(=O)=O (racemic)		50 µM (≈ 26.1 µg/mL)						6.25 µM (≈ 3.27 µg/mL)						
CC(CCn1ccc(-c2ccc(NC(=O)Cc3ccccc3)cc2)cc1=O)(C(=O)NO)S(C)(=O)=O (racemic)		50 µM (≈ 24.9 µg/mL)			95.4 pM	0.0043 s⁻¹	4.48e+07 M⁻¹ s⁻¹	3.12 µM (≈ 1.55 µg/mL)	0.0667 h					
CC(CCn1ccc(-c2ccc(-c3cn(Cc4ccncn4)nn3)cc2)cc1=O)(C(=O)NO)S(C)(=O)=O (racemic)		50 µM (≈ 26.2 µg/mL)			4.2 pM	0.00017 s⁻¹	4.43e+07 M⁻¹ s⁻¹	3.12 µM (≈ 1.64 µg/mL)	1.71 h					
C=CCn1cc(-c2ccc(-c3ccn(CCC(C)(C(=O)NO)S(C)(=O)=O)c(=O)c3)cc2)nn1 (racemic)		12.5 µM (≈ 5.89 µg/mL)			6.1 pM	0.00022 s⁻¹	5.2e+07 M⁻¹ s⁻¹	0.78 µM (≈ 0.368 µg/mL)	1.38 h					146 h
CC(C)(N)[C@H](NC(=O)c1ccc(C#CC#C[C@@H]2C[C@H]2CO)cc1)C(=O)NO [ACHN-975]			0.125 µg/mL (≈ 0.338 µM)	0.25 µg/mL (≈ 0.677 µM)										
